Patent publication US10092565B2, “Treatment of proliferative disorders with a chemiluminescent agent” (Semorex Technologies Ltd., priority 2011, dated 2018)
Like-named read-outs stand apart in the source and are kept apart here. Each block holds one compound with its values, some of them ahead of it.

What was measured:
PC-3 cells = experiment: Alamar Blue growth inhibition of PC-3 cells; assay type: cell-based, human; conditions: for IC50: read-out: Est IC50
Protocol: In additional sets of experiments. […] At the end of the culture period, the level of mitochondrial metabolism was measured (using Alamar Blue assay) and the activity of the chemiluminescent agents was determined by percents of growth inhibition; the inhibition of growth in treated cell cultures compared to non-treated, control cells.

[1] = test system: CHRF line acute myeloid leukemia (AML) cells; experiment: XTT growth inhibition of CHRF AML cells, 72 hours; assay type: cell-based; conditions: for Growth inhibition (%): 80 µM
Protocol: Cells were grown in full culture medium for 24 hours. The medium was then removed and cells were washed with PBS. The PBS was then replaced by fresh medium containing different concentrations of SEM-011 in a range of 50 to 800 μM, or with SEM-011-free medium as a control. […] Growth inhibition was evaluated by calculating the percent decrease in absorbance in SEM-011-treated test cultures as compared to control cultures.

[2] = for effect on decrease in body weight following inoculation with tumor cells: FIG. 5
Excerpt: FIG. 5 is a bar graph showing the change in body weight of nu/nu mice 28 and 77 days after inoculation with PC-3 cells, following intraperitoneal injection of L-012 once per week (L012 l/w) or twice per week (L012 2/w) during days 35-56 after inoculation, and without L-012 administration (Control);
Nu/nu mice were inoculated with PC-3 cells as described in Example 1, and on day 35 post-inoculation, the animals were divided into three groups.
(§1) Control animals received an intraperitoneal injection of PBS.
A second group received one weekly injection of 41.3 mg/kg L-012 for 3 weeks, i.e., on days 35, 42 and 49 post-inoculation. A third group received two weekly injections of 41.3 mg/kg L-012 for 3 weeks, i.e., on days 35, 36, 42, 47, 49 and 56.

[3] = test system: PC-3 prostate cancer cells; experiment: PC-3 prostate cancer tumors in nu/nu mice, tumor volume / Progression Index; assay type: in vivo
Protocol: Tumor volumes were quantified (in cm^3) at the indicated times by using the formula: tumor volume=(width^2×length)/2. Tumor volume index or Progression Index refers to the ratio of a tumor volume at an indicated time to the first volume measured for that tumor.
Nu/nu nude mice were inoculated on their right flank with 2×10^6 PC-3 prostate cancer cells in a Matrigel mixture. Following inoculation, two mice were treated with escalating concentrations of L-012 (also referred to herein as “SEM-007”) by intraperitoneal injections twice per week, according to the following schedule:
As a control, two mice were inoculated with PC-3 cells without receiving L-012.
The volume of the tumor was then monitored.
The tumor volume was measured periodically beginning on day 25 post-inoculation, and the weight loss over the course of the experiment was also measured.
Each treatment group and each control group consisted of four (and sometimes five) mice.
In another set of experiments, Nu/nu male mice, 1.5-month old, were injected subcutaneously on the right flank with PC-3 cells (2.0×10^6 cells/mouse). On days 4, 8, 12, 15, 19, 36, 42 and […] (after the beginning of treatment), mice were treated with either vehicle (PBS) or 43 mg/Kg L012 by intraperitoneal injections. From the beginning of treatment, tumor dimensions were measured and tumor volume calculated. Progression Index was calculated as the ratio of tumor volume growth at a particular time point to the tumor volume at the initiation of treatment.
as §1
The tumor volume was measured periodically beginning on day 35 post-inoculation.
Nu/nu male mice, 1.5-month old, were injected subcutaneously on the right flank with PC-3 cells (2.0×10^6 cells/mouse). On days 4, 8, 12, 15, 19, 36, 42 and 46 (after beginning of treatment), mice were treated with either vehicle (PBS) or 43 mg/Kg SEM 009, by intravenous injection, as indicated.
From the beginning of treatment, tumor dimensions were measured and tumor volume calculated. Progression Index was calculated as the ratio of tumor volume rowth at a particular time point to the tumor volume at the initiation of treatment.

[4] = test system: PC-3 prostate cancer cell line; experiment: XTT growth inhibition of PC-3 cells, 24 hours; assay type: cell-based, human
Protocol: (§2) The compound SEM-011 was tested for anti-cancer activity, using the PC-3 prostate cancer cell line. Cells were grown in full culture medium for 24 hours. The medium was then removed and cells were washed with PBS. The PBS was then replaced by fresh medium containing different concentrations of SEM-011 in a range of 50 to 800 μM, or with SEM-011-free medium as a control. Cells were then cultured for 24 hours, after which time the level of cellular metabolism in the cultures was measured using a standard XTT (2,3-bis-(2-methoxy-4-nitro-5-sulfophenyl)-2H-tetrazolium-5-carboxanilide) assay. Growth inhibition was evaluated by calculating the percent decrease in absorbance in SEM-011-treated test cultures as compared to control cultures.

[5] = XTT growth inhibition IC50 in a panel of cancer cell lines, 72 hours; assay type: cell-based; conditions: span over all tested cell lines, FIG. 7, read-out: IC50 (concentration which resulted in 50% growth inhibition)
Protocol: as §2
(§3) The compounds SEM-007 (also referred to herein and in the art as “L-012”) and SEM-009 (also referred to in the art as “L-002”) were tested for anti-cancer activity using a variety of cell lines. The cell lines used were OvCar-3 ovarian cancer cells, SKOV-3 ovarian cancer cells, HepG2 liver cancer cells, PC-3 prostate cancer cells, and CHRF acute myeloid leukemia cells.

[6] = test system: OvCar-3 ovarian cancer cells, SKOV-3 ovarian cancer cells, HepG2 liver cancer cells, PC-3 prostate cancer cells, CHRF acute myeloid leukemia cells; experiment: as above; assay type: cell-based; conditions: all tested cell lines, FIG. 7
Protocol: as §2, §3

[7] = Homo sapiens, PC-3, 200 uM, 24 hrs
[8] = Homo sapiens, PC-3, 200 uM, 48 hrs
[9] = Homo sapiens, PC-3, 200 uM, 72 hrs
[10] = Homo sapiens, PC-3, 400 uM, 24 hrs
[11] = Homo sapiens, PC-3, 400 uM, 48 hrs
[12] = Homo sapiens, PC-3, 400 uM, 72 hrs
[13] = Homo sapiens, PC-3, 800 uM, 24 hrs
[14] = Homo sapiens, PC-3, 800 uM, 48 hrs
[15] = Homo sapiens, PC-3, 800 uM, 72 hrs

Compound: O=c1[nH][nH]c(=O)c2c(O)c(-c3ccccc3Cl)ncc12 [SEM-013, 8-hydroxy-7-(2-chlorophenyl)-2,3-dihydropyrido[4,3-d]pyridazine-1,4-dione]
inhibition at 200 µM (PC-3 cells; [7]): 23.8% | inhibition at 200 µM (PC-3 cells; [8]): 22.3% | inhibition at 200 µM (PC-3 cells; [9]): 23.1% | inhibition at 400 µM (PC-3 cells; [10]): 30.1% | inhibition at 400 µM (PC-3 cells; [11]): 29.1% | inhibition at 400 µM (PC-3 cells; [12]): 41.7% | inhibition at 800 µM (PC-3 cells; [13]): 37.1% | inhibition at 800 µM (PC-3 cells; [14]): 55.5% | inhibition at 800 µM (PC-3 cells; [15]): 64.2%

Compound: MCLA
Growth inhibition (%) [1]: 85%

Compound: Nc1c(-c2ccccc2)nc(Cl)c2c(=O)[nH][nH]c(=O)c12 [SEM-007, L-012]
% growth inhibition (PC-3 cells; 25 uM, 48 hrs): 27% | % growth inhibition (PC-3 cells; 25 uM, 73 hrs): 11% | % growth inhibition (PC-3 cells; 50 uM, 24 hrs): 46.46% | % growth inhibition (PC-3 cells; 50 uM, 48 hrs): 31% | % growth inhibition (PC-3 cells; 50 uM, 73 hrs): 20% | % growth inhibition (PC-3 cells; 100 uM, 24 hrs): 65.25% | % growth inhibition (PC-3 cells; 100 uM, 48 hrs): 38% | % growth inhibition (PC-3 cells; 100 uM, 73 hrs): 38% | % growth inhibition (PC-3 cells; 200 uM, 24 hrs): 66.84% | % growth inhibition (PC-3 cells; 200 uM, 48 hrs): 58% | % growth inhibition (PC-3 cells; 200 uM, 73 hrs): 58.0% | % growth inhibition (PC-3 cells; 400 uM, 24 hrs): 77.73% | % growth inhibition (PC-3 cells; 400 uM, 48 hrs): 70% | % growth inhibition (PC-3 cells; 400 uM, 73 hrs): 76% | % growth inhibition (PC-3 cells; 800 uM, 24 hrs): 73.80% | % growth inhibition (PC-3 cells; 800 uM, 48 hrs): 78% | % growth inhibition (PC-3 cells; 800 uM, 73 hrs): 90% | IC50 (PC-3 cells; 48 hrs): 160 µM | IC50 (PC-3 cells; 73 hrs): 140 µM | systemic toxicity or morbidity in tumor-bearing mice ([2]; 41.3 mg/kg once or twice per week): does not result in systemic toxicity or morbidity | effect on decrease in body weight following inoculation with tumor cells ([2]; 41.3 mg/kg once per week): partially inhibited the decrease in body weight | effect on decrease in body weight following inoculation with tumor cells ([2]; 41.3 mg/kg twice per week): completely reversed the decrease in body weight | reduction of tumor volume in comparison with the PBS-treated control ([3]; 41.3 mg/kg intraperitoneal on days 25, 28, 32, 35, at day 65, FIG. 3A): 54% | reduction of tumor volume in comparison with the PBS-treated control ([3]; 41.3 mg/kg once per week for 3 weeks, at day 73, FIGS. 4A, 4B): 45% | reduction of tumor volume in comparison with the PBS-treated control ([3]; 41.3 mg/kg twice per week for 3 weeks, at day 73, FIGS. 4A, 4B): 95% | Progression Index compared to non-treated mice ([3]; 43 mg/Kg intraperitoneal, FIG. 3B): sharp increase in the Progression Index | average tumor volume progression after administration ([3]; escalating L-012 41.3, 66.5, 100.4 mg/kg intraperitoneal on days 32, 39, 43, FIG. 2): halted tumor progression, with no increase in average tumor volume | tumor volume reduction (summary of FIGS. 2-4B) ([3]; prostate cancer cells injected into mice, dose dependent): up to 95%

Compound: O=c1[nH][nH]c(=O)c2c(O)c(-c3ccc(Cl)cc3)ncc12 [SEM-014, 8-hydroxy-7-(4-chlorophenyl)-2,3-dihydropyrido[4,3-d]pyridazine-1,4-dione]
inhibition at 200 µM (PC-3 cells; [7]): 51.6% | inhibition at 200 µM (PC-3 cells; [8]): 71.9% | inhibition at 200 µM (PC-3 cells; [9]): 68.2% | inhibition at 400 µM (PC-3 cells; [10]): 55.7% | inhibition at 400 µM (PC-3 cells; [11]): 70.5% | inhibition at 400 µM (PC-3 cells; [12]): 72.7% | inhibition at 800 µM (PC-3 cells; [13]): 54.3% | inhibition at 800 µM (PC-3 cells; [14]): 71.3% | inhibition at 800 µM (PC-3 cells; [15]): 76.1%

Compound: NNc1nc(-c2ccccc2)c(O)c2c(=O)[nH][nH]c(=O)c12 [SEM-011, 5-hydrazinyl-8-hydroxy-7-phenyl-2,3-dihydropyrido[4,3-d]pyridazine-1,4-dione]
inhibition at 50 µM ([4]; Homo sapiens, PC-3, 50 μM): 50% | inhibition at 100 µM ([4]; Homo sapiens, PC-3, 100 μM): 87% | inhibition at 200 µM ([4]; Homo sapiens, PC-3, 200 μM): 96% | inhibition at 400 µM ([4]; Homo sapiens, PC-3, 400 μM): 96% | inhibition at 800 µM ([4]; Homo sapiens, PC-3, 800 μM): 96% | PC-3 cell growth inhibition in words ([4]; concentrations of 200 μM or more): almost completely inhibited PC-3 cell growth

IC50 [5]: 40 to 200 µM | IC50 (PC-3 cells; Homo sapiens, PC-3, 48 hrs): 100 µM | IC50 (PC-3 cells; Homo sapiens, PC-3, 73 hrs): 110 µM
Compound: O=c1[nH][nH]c(=O)c2c(O)c(-c3ccccc3)ncc12 [SEM-009, 8-hydroxy-7-phenyl-2,3-dihydropyrido[4,3-d]pyridazine-1,4-dione]
IC50 compared with SEM-007 [6]: lower than that of SEM-007 in all of the tested cell lines | inhibition at 50 µM (PC-3 cells; Homo sapiens, PC-3, 50 uM, 24 hrs): -27.2% | inhibition at 50 µM (PC-3 cells; Homo sapiens, PC-3, 50 uM, 48 hrs): 26.6% | inhibition at 50 µM (PC-3 cells; Homo sapiens, PC-3, 50 uM, 73 hrs): 21.3% | inhibition at 100 µM (PC-3 cells; Homo sapiens, PC-3, 100 uM, 24 hrs): 81.4% | inhibition at 100 µM (PC-3 cells; Homo sapiens, PC-3, 100 uM, 48 hrs): 49.2% | inhibition at 100 µM (PC-3 cells; Homo sapiens, PC-3, 100 uM, 73 hrs): 47.8% | inhibition at 200 µM (PC-3 cells; [7]): 84.2% | inhibition at 200 µM (PC-3 cells; [8]): 80.3% | inhibition at 200 µM (PC-3 cells; Homo sapiens, PC-3, 200 uM, 73 hrs): 80.5% | inhibition at 400 µM (PC-3 cells; [10]): 90.6% | inhibition at 400 µM (PC-3 cells; [11]): 83.7% | inhibition at 400 µM (PC-3 cells; Homo sapiens, PC-3, 400 uM, 73 hrs): 85.6% | inhibition at 800 µM (PC-3 cells; [13]): 89.1% | inhibition at 800 µM (PC-3 cells; [14]): 85.7% | inhibition at 800 µM (PC-3 cells; Homo sapiens, PC-3, 800 uM, 73 hrs): 89% | Progression Index compared to non-treated mice ([3]; 43 mg/Kg SEM 009 by intravenous injection, FIG. 9): sharp decrease in the Progression Index

Compound: C[n+]1c2ccccc2c(-c2c3ccccc3[n+](C)c3ccccc23)c2ccccc21 [Lucigenin]
Growth inhibition (%) [1]: 33%

Compound: Nc1cccc2c(=O)[nH][nH]c(=O)c12 [Luminol]
inhibition at 80 µM ([1]; 72 h, read-out: Growth inhibition (%)): 40%
